Experimental data taken from patent US20080153917A1, “Sigma Receptor Ligands” (UCB PHARMA, S.A., priority 2004, published 2008).
Structures can show the parent of a compound that is named as a salt.

How the values were obtained:
[1] = tested on: MK801-induced short term/working memory deficits; assay: spontaneous alternation task (Y-shaped maze), short term/working memory; assay type: in vivo; settings: male mice, 8 minutes in maze; normal mice 65-70 %
From the text: The effect of claimed compounds has been evaluated in an animal model of short term/working memory, namely the spontaneous alternation task. The test system consisted of a symmetrical Y-shaped maze. […] Claimed compounds were able to prevent this deficit after systemic administration.

| Structure (SMILES) | melting point [°C] | % spontaneous alternation [1] |
| --- | --- | --- |
| O=C(NCCCN1CCN(Cc2c(F)cccc2Cl)CC1)[C@@H]1C[C@H]1c1ccccc1 (relative stereo) (as salt: HCl) [Compound 5, Trans-N-{3-[4-(2-chloro-6-fluorobenzyl)-1-piperazinyl]propyl}-2-phenylcyclopropanecarboxamide] | 145 |  |
| CCN(CC)CCNC(=O)C(c1ccccc1)C1CCCC1 (single isomer, unassigned; (-)) (as salt: HCl) [Compound 51, (−)2-cyclopentyl-N-[2-(diethylamino)ethyl]-2-phenylacetamide] | 146 |  |
| CCN(CC)C1CCN(C(=O)C(c2ccccc2)C2CCCC2)CC1 (centres unmarked) (as salt: HCl) [Compound 37, N-{1-[cyclopentyl(phenyl)acetyl]-4-piperidinyl}-N,N-diethylamine] | 79 |  |
| C[C@]12N[C@H](Cc3ccccc31)c1ccccc12 [MK801] |  | decreased percentage of spontaneous alternation |
| O=C(NCCCN1CCN(Cc2c(F)cccc2Cl)CC1)C(c1ccccc1)C1CCCC1 (centres unmarked) (as salt: HCl) [Compound 34, N-{3-[4-(2-chloro-6-fluorobenzyl)-1-piperazinyl]propyl}-2-cyclopentyl-2-phenylacetamide] | 148 |  |
| O=C(NCCN1CCN(C(=O)c2c(F)cccc2Cl)CC1)[C@@H]1C[C@H]1c1ccccc1 (relative stereo) (as salt: HCl) [Compound 9, Trans-N-{2-[4-(2-chloro-6-fluorobenzoyl)-1-piperazinyl]ethyl}-2-phenylcyclopropanecarboxamide] | 122 |  |
| O=C(C(c1ccccc1)C1CCCC1)N1CCC(N2CCCCC2)CC1 (centres unmarked) (as salt: HCl) [Compound 24, 1′-[cyclopentyl(phenyl)acetyl]-1,4′-bipiperidine] | 112 |  |
| CCN(CC)CCNC(=O)C(c1ccc(F)cc1)C1CCCC1 (centres unmarked) (as salt: HCl) [Compound 21, 2-cyclopentyl-N-[2-(diethylamino)ethyl]-2-(4-fluorophenyl)acetamide] | 45 |  |
| O=C(NCCN1CCN(Cc2ccc(Cl)c(Cl)c2)CC1)[C@@H]1C[C@H]1c1ccccc1 (relative stereo) (as salt: HCl) [Compound 10, Trans-N-{2-[4-(3,4-dichlorobenzyl)-1-piperazinyl]ethyl}-2-phenylcyclopropanecarboxamide] | 145 |  |
| O=C(C(c1ccc(Cl)cc1)C1CCCC1)N1CCC(N2CCCCC2)CC1 (centres unmarked) (as salt: HCl) [Compound 27, 1′-[(4-chlorophenyl)(cyclopentyl)acetyl]-1,4′-bipiperidine] | 105 |  |
| O=C(C(c1ccccc1)C1CCCC1)N1CCC(N2CCOCC2)CC1 (centres unmarked) (as salt: Na) [Compound 36, 4-{1-[cyclopentyl(phenyl)acetyl]-4-piperidinyl}morpholine] | 111.8 |  |
| CC(C)N1CCN(C2CCN(C(=O)C(c3ccccc3)C3CCCC3)CC2)CC1 (centres unmarked) (as salt: Na) [Compound 38, 1-{1-[cyclopentyl(phenyl)acetyl]-4-piperidinyl}-4-isopropylpiperazine] | 109.6 |  |
| CCN(CC)CCNC(=O)C(c1ccccc1)C1CCCC1 (centres unmarked) (as salt: HCl) [Compound 15, 2-cyclopentyl-N-[2-(diethylamino)ethyl]-2-phenylacetamide] | 129 |  |
| O=C(C(c1ccccc1)C1CCCC1)N1CCC(N2CCC(O)CC2)CC1 (centres unmarked) (as salt: HCl) [Compound 41, 1′-[cyclopentyl(phenyl)acetyl]-1,4′-bipiperidin-4-ol] | 90 |  |
| NCCNC(=O)C(c1ccccc1)C1CCCC1 (centres unmarked) (as salt: HCl) [Compound 22, N-(2-aminoethyl)-2-cyclopentyl-2-phenylacetamide] | 290 |  |
| O=C(NCCN1CCN(Cc2ccccc2)CC1)[C@@H]1C[C@H]1c1ccccc1 (relative stereo) (as salt: HCl) [Compound 7, Trans-N-[2-(4-benzyl-1-piperazinyl)ethyl]-2-phenylcyclopropanecarboxamide] | 195 |  |
| CCN(CC)CCNC(=O)C(c1ccccc1)C1CCCC1 (single isomer, unassigned; (+)) (as salt: HCl) [Compound 50, (+)2-cyclopentyl-N-[2-(diethylamino)ethyl]-2-phenylacetamide] | 144 |  |
| O=C(C(c1ccc(Cl)c(Cl)c1)C1CCCC1)N1CCC(N2CCCCC2)CC1 (centres unmarked) (as salt: HCl) [Compound 25, 1′-[cyclopentyl(3,4-dichlorophenyl)acetyl]-1,4′-bipiperidine] | 230 |  |
| CN(C)[C@H]1CCN(C(=O)C(c2ccccc2)C2CCCC2)C1 (stereo partly drawn) (as salt: Na) [Compound 42, (3S)-1-[cyclopentyl(phenyl)acetyl]-N,N-dimethyl-3-pyrrolidinamine] | 68 |  |
| CCNCCNC(=O)C(c1ccccc1)C1CCCC1 (centres unmarked) (as salt: HCl) [Compound 18, 2-cyclopentyl-N-[2-(ethylamino)ethyl]-2-phenylacetamide] | 131 |  |
| CC1CCCCN1CCCNC(=O)C(c1ccccc1)C1CCCC1 (centres unmarked) (as salt: HCl) [Compound 14, 2-cyclopentyl-N-[3-(2-methyl-1-piperidinyl)propyl]-2-phenylacetamide] | 69 |  |
| CCOC(=O)C1CCN(C2CCN(C(=O)C(c3ccccc3)C3CCCC3)CC2)CC1 (centres unmarked) (as salt: HCl) [Compound 40, ethyl 1′-[cyclopentyl(phenyl)acetyl]-1,4′-bipiperidine-4-carboxylate] | 88 |  |
| O=C(NCCCN1CCOCC1)C(c1ccccc1)C1CCCC1 (centres unmarked) (as salt: HCl) [Compound 32, 2-cyclopentyl-N-[3-(4-morpholinyl)propyl]-2-phenylacetamide] | 145 |  |
